Our source for the inhibition values is US9688691B2, “Macrocyclic quinazole derivatives and their use as MTKI” (Janssen Pharmaceutica NV, priority 2004, dated 2017).

A word on the inhibition: it is the relative decrease from the control value, in per cent.

Bounds are passed on as bounds.

Common to all, as to assay type: biochemical
In assay [1] the target is Yes (h) (Homo sapiens, UniProt P07947). Kind of assay: Kinase profiling, glass-fiber filter technology: Yes. The following applies: test concentration of 10^−6 M; read-out: Yes inhibition score. On the procedure: (§1) The in vitro inhibition of a panel of kinases was assessed using the glass-fiber filter technology as described by Davies, S. P. et al., Biochem J. (2000), 351; p. 95-105.
(§2) In the glass-fiber filter technology the activity of the kinase of interest is measured using an appropriate substrate that is incubated with the aforementioned kinase protein in the presence of (^33P) radiolabeled ATP. (^33P) Phosporylation of the substrate is subsequently measured as radioactivity bound on a glassfiber-filter.
(§3) All kinases are pre-diluted to a 10× working concentration prior to addition into the assay. The composition of the dilution buffer for each kinase is detailed below.
(§4) All substrates are dissolved and diluted to working stocks in de-ionised water.
(§5) In a final reaction volume of 25 μl, Yes (h) (5-10 mU) is incubated with 8 mM MOPS pH 7.0, 0.2 mM EDTA, 0.1 mg/ml poly(Glu, Tyr) 4:1, 10 mM MgAcetate and [γ-^33P-ATP] (specific activity approx. 500 cpm/pmol, concentration as required). The reaction is initiated by the addition of the MgATP mix. After incubation for 40 minutes at room temperature, the reaction is stopped by the addition of 5 μl of a 3% phosphoric acid solution. 10 μl of the reaction is then spotted onto a Filtermat A and washed three times for 5 minutes in 75 mM phosphoric acid and once in methanol prior to drying and scintillation counting.

Assay [2] addresses cSRC (h) (Homo sapiens, UniProt P12931). Kind of assay: Kinase profiling, glass-fiber filter technology: cSRC. The following applies: test concentration of 10^−6 M; read-out: cSRC inhibition score. On the procedure: as §1, §2, §3, §4
In a final reaction volume of 25 μl, cSRC (h) (5-10 mU) is incubated with 8 mM MOPS pH 7.0, 0.2 mM EDTA, 250 μM KVEKIGEGTYGVVYK (Cdc2 peptide), 10 mM MgAcetate and [γ-^33P-ATP] (specific activity approx. 500 cpm/pmol, concentration as required). The reaction is initiated by the addition of the MgATP mix. After incubation for 40 minutes at room temperature, the reaction is stopped by the addition of 5 μl of a 3% phosphoric acid solution.
(§6) 10 μl of the reaction is then spotted onto a P30 filtermat and washed three times for 5 minutes in 75 mM phosphoric acid and once in methanol prior to drying and scintillation counting.

For assay [3], the target named is Lck (h) (Homo sapiens, UniProt P06239). The assay is described as follows: Kinase profiling, glass-fiber filter technology: Lck. Particulars: test concentration of 10^−6 M; read-out: Lck inhibition score. On the procedure: as §1, §2, §3, §4
(§7) In a final reaction volume of 25 μl, Lck (h) (5-10 mU) is incubated with 50 mM Tris pH 7.5, 0.1 mM EGTA, 0.1 mM Na3VO4, 250 μM KVEKIGEGTYGVVYK (Cdc2 peptide), 10 mM MgAcetate and [γ-^33P-ATP] (specific activity approx. 500 cpm/pmol, concentration as required). The reaction is initiated by the addition of the MgATP mix. After incubation for 40 minutes at room temperature, the reaction is stopped by the addition of 5 μl of a 3% phosphoric acid solution.
as §6

In assay [4] the target is Lyn (h) (Homo sapiens, UniProt P07948). The assay is described as follows: Kinase profiling, glass-fiber filter technology: Lyn. The following applies: test concentration of 10^−6 M; read-out: Lyn inhibition score. As to the method:
as §1, §2, §3, §4
as §5, with “Lyn” for “Yes”, “50” for “8”, “Tris” for “MOPS”, “7.5, 0.1” for “7.0, 0.2”, “EGTA, 0.1 mM Na3VO4, 0.1% β-mercaptoethanol,” for “EDTA,”

Assay [5] deals with Blk (m) (Mus musculus, UniProt P16277). The assay is described as follows: Kinase profiling, glass-fiber filter technology: Blk. The following applies: test concentration of 10^−6 M; read-out: Blkl inhibition score. On the procedure:
as §1, §2, §3, §4
as §5, with “Blk (m)” for “Yes (h)”, “50” for “8”, “Tris” for “MOPS”, “7.5, 0.1” for “7.0, 0.2”, “EGTA, 0.1 mM Na3VO4, 0.1% β-mercaptoethanol,” for “EDTA,”, “[γ-33P-ATP]” for “[γ-^33P-ATP]”

Assay [6] has as its target EGFR (h) (Homo sapiens, UniProt P00533). Kind of assay: Kinase profiling, glass-fiber filter technology: EGFR. Particulars: test concentration of 10^−6 M; read-out: EGFR inhibition score. As to the method:
as §1, §2, §3, §4
as §5, with “EGFR” for “Yes”, “EDTA, 10 mM MnCl2,” for “EDTA,”

In assay [7] the target is ErbB4 (h) (Homo sapiens, UniProt Q15303). The assay is described as follows: Kinase profiling, glass-fiber filter technology: ErbB4. Particulars: test concentration of 10^−6 M; read-out: ErbB4 inhibition score. On the procedure: as §1, §2, §3, §4
as §5, with “ErbB4” for “Yes”, “EDTA, 10 mM MnCl2,” for “EDTA,”, “[γ-33P-ATP]” for “[γ-^33P-ATP]”

Assay [8] deals with Ret human (Homo sapiens, UniProt P07949). The assay is described as follows: Kinase profiling, glass-fiber filter technology: Ret. The following applies: test concentration of 10^−6 M; read-out: Ret inhibition score. As to the method: as §1, §2, §3, §4
as §5, with “Ret human” for “Yes (h)”, “250 μM KKKSPGEYVNIEFG,” for “0.1 mg/ml poly(Glu, Tyr) 4:1,”, “P30 filtermat” for “Filtermat A”

The target of assay [9] is Fyn human (Homo sapiens, UniProt P06241). Kind of assay: Kinase profiling, glass-fiber filter technology: Fyn. The following applies: test concentration of 10^−6 M; read-out: Fyn inhibition score. On the procedure: as §1, §2, §3, §4
as §7, with “Fyn human” for “Lck (h)”, “solution. 10 μl of the reaction is then spotted onto a P30 filtermat and washed three times for 5 minutes in 75 mM phosphoric acid and once in methanol prior to drying and scintillation counting.” for “solution.”

Assay [10] addresses Abl (h) (Homo sapiens, UniProt P00519). The assay is described as follows: Kinase profiling, glass-fiber filter technology: Abl. Particulars: test concentration of 10^−6 M; read-out: Abl inhibition score. On the procedure: as §1, §2, §3, §4
as §5, with “Abl” for “Yes”, “50 μM EAIYAAPFAKKK,” for “0.1 mg/ml poly(Glu, Tyr) 4:1,”, “P30 filtermat” for “Filtermat A”

Chain of cSRC (h) (P12931 whole entry): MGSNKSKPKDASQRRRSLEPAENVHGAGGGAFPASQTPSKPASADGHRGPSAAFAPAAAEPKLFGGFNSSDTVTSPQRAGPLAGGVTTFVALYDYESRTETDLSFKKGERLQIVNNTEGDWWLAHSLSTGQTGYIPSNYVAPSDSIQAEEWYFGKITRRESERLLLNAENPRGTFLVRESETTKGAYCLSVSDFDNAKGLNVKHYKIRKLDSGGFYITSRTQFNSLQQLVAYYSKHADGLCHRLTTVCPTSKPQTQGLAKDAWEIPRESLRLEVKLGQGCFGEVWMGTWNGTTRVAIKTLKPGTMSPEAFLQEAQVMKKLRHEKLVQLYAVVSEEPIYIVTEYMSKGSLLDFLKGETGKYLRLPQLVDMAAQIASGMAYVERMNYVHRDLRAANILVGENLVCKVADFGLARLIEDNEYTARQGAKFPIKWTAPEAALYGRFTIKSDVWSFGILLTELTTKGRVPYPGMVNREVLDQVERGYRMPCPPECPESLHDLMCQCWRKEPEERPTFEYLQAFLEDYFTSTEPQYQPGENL
Chain of EGFR (h) (P00533 25-1210): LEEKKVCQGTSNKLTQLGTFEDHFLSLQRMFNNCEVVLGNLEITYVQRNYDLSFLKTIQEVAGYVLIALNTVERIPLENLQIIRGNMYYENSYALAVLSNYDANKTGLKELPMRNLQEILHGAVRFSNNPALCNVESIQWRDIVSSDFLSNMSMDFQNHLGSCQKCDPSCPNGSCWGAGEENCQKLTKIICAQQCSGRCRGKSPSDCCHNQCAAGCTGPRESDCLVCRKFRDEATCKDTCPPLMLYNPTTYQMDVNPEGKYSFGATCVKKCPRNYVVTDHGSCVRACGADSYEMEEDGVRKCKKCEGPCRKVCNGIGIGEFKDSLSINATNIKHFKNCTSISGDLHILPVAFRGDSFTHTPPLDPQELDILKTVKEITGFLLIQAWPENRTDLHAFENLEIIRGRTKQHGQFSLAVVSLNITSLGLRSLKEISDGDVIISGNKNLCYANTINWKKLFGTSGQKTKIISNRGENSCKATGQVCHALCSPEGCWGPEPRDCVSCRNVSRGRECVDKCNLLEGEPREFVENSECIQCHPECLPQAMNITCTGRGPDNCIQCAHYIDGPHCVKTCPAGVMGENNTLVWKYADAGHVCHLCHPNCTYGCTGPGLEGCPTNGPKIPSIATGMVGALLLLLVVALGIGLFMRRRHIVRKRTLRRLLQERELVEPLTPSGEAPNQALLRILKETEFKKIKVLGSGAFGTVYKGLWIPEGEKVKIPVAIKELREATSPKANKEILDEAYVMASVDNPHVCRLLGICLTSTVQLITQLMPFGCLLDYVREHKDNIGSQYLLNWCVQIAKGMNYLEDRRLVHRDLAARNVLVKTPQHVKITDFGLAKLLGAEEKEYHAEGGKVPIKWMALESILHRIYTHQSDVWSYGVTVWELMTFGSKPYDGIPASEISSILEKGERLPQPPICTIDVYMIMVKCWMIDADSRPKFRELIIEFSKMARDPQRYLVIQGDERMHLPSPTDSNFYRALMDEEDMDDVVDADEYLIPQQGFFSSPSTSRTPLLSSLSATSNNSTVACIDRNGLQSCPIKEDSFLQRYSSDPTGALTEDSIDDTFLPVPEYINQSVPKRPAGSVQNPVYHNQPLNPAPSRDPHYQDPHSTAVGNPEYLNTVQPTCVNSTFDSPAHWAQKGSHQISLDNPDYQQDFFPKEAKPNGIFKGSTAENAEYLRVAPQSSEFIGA
Chain of Yes (h) (P07947 whole entry): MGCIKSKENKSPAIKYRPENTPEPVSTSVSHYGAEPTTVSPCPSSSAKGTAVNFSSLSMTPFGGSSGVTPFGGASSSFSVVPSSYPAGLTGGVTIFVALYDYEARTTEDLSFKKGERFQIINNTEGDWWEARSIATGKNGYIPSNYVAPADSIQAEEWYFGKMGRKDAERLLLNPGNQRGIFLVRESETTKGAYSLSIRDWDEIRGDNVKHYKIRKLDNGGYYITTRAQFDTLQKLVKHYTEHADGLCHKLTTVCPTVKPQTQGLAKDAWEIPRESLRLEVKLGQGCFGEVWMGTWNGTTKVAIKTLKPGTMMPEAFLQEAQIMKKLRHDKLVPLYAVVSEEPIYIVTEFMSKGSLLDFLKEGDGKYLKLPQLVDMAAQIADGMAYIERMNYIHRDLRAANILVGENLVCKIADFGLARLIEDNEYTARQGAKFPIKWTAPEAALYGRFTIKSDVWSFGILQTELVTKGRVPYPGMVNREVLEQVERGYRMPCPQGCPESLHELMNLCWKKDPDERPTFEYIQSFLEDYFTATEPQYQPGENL
Chain of Lck (h) (P06239 whole entry): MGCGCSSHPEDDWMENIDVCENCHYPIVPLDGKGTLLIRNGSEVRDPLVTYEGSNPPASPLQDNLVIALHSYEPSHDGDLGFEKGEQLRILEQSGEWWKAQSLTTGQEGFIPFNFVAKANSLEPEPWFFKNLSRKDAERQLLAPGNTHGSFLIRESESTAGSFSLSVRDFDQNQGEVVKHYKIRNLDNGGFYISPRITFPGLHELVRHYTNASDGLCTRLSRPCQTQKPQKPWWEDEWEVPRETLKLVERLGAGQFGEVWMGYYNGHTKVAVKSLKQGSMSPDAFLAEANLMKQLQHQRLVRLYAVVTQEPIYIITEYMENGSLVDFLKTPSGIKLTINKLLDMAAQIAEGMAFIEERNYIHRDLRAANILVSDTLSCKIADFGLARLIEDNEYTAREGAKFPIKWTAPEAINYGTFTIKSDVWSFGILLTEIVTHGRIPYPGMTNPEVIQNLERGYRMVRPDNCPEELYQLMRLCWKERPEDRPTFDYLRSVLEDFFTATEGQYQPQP
Chain of Blk (m) (P16277 whole entry): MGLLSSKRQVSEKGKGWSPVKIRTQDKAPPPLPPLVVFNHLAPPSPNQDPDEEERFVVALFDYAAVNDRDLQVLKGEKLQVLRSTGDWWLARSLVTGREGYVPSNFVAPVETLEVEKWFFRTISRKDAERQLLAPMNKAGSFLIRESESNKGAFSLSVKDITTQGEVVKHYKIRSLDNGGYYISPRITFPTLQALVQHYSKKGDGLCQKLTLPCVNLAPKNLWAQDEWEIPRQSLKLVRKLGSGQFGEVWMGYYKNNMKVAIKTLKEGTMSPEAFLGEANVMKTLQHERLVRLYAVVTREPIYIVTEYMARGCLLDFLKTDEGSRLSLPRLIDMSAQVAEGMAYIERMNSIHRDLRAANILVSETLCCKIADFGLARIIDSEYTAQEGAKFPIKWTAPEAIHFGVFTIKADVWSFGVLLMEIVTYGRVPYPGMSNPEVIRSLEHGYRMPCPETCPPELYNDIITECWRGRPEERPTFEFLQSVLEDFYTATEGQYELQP
Chain of ErbB4 (h) (Q15303 26-1308): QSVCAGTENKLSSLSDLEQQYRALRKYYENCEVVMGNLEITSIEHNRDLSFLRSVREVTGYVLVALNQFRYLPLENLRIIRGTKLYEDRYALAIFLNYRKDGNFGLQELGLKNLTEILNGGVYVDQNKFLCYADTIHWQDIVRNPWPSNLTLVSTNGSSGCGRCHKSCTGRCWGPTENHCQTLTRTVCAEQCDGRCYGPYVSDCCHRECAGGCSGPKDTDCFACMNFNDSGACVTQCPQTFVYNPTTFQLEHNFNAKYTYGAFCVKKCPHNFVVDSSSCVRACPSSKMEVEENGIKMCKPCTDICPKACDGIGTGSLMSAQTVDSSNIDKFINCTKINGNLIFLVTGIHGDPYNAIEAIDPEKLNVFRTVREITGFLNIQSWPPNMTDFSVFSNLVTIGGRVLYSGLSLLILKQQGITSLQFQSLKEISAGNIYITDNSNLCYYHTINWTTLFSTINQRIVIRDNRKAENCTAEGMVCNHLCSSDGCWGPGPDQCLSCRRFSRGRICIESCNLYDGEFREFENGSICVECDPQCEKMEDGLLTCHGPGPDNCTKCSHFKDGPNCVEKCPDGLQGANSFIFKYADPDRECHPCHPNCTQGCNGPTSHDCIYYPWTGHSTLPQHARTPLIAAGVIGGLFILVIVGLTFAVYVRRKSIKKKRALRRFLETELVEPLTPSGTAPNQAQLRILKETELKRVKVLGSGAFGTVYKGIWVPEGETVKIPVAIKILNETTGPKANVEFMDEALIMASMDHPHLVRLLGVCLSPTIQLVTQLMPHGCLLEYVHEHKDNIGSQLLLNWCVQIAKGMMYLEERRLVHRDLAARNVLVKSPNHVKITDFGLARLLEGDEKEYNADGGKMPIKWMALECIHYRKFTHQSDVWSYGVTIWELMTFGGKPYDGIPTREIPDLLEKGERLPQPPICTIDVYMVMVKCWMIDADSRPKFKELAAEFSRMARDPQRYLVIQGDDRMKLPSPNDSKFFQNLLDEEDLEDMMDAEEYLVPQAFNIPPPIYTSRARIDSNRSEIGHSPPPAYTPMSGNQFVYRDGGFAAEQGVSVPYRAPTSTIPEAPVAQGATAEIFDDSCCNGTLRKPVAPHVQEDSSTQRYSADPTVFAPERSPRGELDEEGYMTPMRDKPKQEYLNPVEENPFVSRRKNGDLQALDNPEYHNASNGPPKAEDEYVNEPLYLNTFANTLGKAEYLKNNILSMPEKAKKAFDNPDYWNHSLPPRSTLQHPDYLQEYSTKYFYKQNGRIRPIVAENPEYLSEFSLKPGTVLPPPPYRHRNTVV
Chain of Lyn (h) (P07948 whole entry): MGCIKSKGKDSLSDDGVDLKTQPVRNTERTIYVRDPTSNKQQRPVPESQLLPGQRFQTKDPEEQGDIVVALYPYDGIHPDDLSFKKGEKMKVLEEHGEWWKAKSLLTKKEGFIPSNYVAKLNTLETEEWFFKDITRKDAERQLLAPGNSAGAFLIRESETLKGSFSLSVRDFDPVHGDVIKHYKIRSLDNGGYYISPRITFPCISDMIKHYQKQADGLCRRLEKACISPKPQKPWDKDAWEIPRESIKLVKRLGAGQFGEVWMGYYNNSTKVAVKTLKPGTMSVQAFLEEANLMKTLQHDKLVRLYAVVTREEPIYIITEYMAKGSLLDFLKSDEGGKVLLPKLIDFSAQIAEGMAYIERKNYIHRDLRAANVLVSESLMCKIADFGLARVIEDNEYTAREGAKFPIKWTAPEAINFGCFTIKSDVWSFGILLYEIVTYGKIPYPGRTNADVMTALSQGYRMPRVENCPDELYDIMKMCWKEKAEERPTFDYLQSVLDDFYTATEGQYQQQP

For `COc1cc2ncnc3c2cc1OCCN(CCN1CCOCC1)C(=O)CNC(=O)Cc1ccc(Cl)cc1N3` [Compound 1], the inhibition at 1 µM in assay [1] was 30 to 60%; in assay [2] it was 60 to 80%; in [3], 10 to 30%; in [4], 30 to 60%; in [5], 30 to 60%; in assay [6], above 80%.
Turning to `COc1cc2ncnc3c2cc1OCCCNC(=O)[C@H](CC1CCCCC1)NC(=O)CCc1ccc(Cl)cc1N3` [Compound 8], the inhibition at 1 µM in assay [7] is 60 to 80%; in [8], above 80%; in assay [1] it was above 80%; in assay [9], 60 to 80%; in assay [10], 10 to 30%; in assay [2] it was above 80%. For the same molecule, the inhibition at 1 µM in assay [3] and in [6] was above 80% each time.
